According to US6699459B2, “Methods of treating lung inflammation” (The Board of Regents of the University of Texas System, priority 2001, dated 2004):

How the values were obtained:
[1] = system: human IRF-7 promoter; assay: IRF-7 promoter luciferase reporter in A549 cells; assay type: cell-based
Description: (§1) Cell transfection. To investigate IRF-1 and -7 gene transcription, A549 cells were transiently transfected with the IRF-1 or -7 promoter, linked to the luciferase reporter gene. Logarithmically growing A549 cells were transfected in triplicate in 60 mm petri dishes by DEAE-Dextran, as previously described (20). Cells were incubated in 2 ml of HEPES buffered DMEM (10 mM Hepes, pH 7.4) containing 20 μl of 60 mg/ml DEAE-Dextran (Amersham Pharmacia Biotec, Arlington Heights, Ill.) premixed with 6 μg of either IRF-1 or -7 plasmids and 1 μg CMV-β galactosidase internal control plasmid. After 3 hours, media was removed and 0.5 ml of 10% (v/v) DMSO in PBS was added to the cells for 2 minutes. Cells were washed with PBS and cultured overnight in 10% FBS/DMEM. The next morning, cells were infected with RSV and cells were lysed at different times post-infectionto measure independently luciferase and galactosidase reporter activity, as previously described (20). Luciferase was normalized to the internal control galactosidase activity. All experiments were performed in duplicate or triplicate.

[2] = system: IRF-7 mRNA; assay: Northern blot of IRF-7 mRNA in RSV-infected A549 cells; assay type: cell-based, human; settings: 400 μM
Description: (§2) Northern Blot. Total RNA was extracted from control and infected A549 cells by the acid guanidium thiocyanate-phenol chloroform method (18). Twenty micrograms of RNA were fractionated on a 1.2% agarose-formaldehyde gel, transferred to nylon membranes and hybridized to a radiolabeled RANTES, IRF-1, -3 and -7 cDNAs, as previously described (19). Hybridization temperature for all probes was 55° C. After washing, membranes were exposed for autoradiography using Kodak XAR film at −70° C. using intensifying screens. After exposure, membranes were stripped and rehybridized with a β-actin probe.

[3] = system: NF-κB; assay: RSV-induced NF-κB nuclear translocation and DNA-binding in A549 cells; assay type: cell-based, human; settings: data not shown
[4] = system: IRF-3 mRNA; assay: Northern blot of IRF-3 mRNA in RSV-infected A549 cells; assay type: cell-based, human; settings: data not shown
Description: as §2

[5] = system: IRF-7; assay: Western blot of IRF-7 in total cell lysates of RSV-infected A549 cells; assay type: cell-based, human; settings: whole cell extracts, RSV 12 hours, 400 μM
Description: (§3) Western Immunoblot. Total cell lysates and cytoplasmic and nuclear proteins were prepared as previously described, fractionated by SDS-PAGE and transferred to PVDF membrane (20). Membranes were blocked with 5% albumin in TBS-Tween and incubated overnight with a rabbit polyclonal antibody to IRF-1, -3 and -7 (Santa Cruz Biotech, Santa Cruz, Calif.). For secondary detection, a horseradish-coupled anti-rabbit or anti-mouse antibody was used in the enhanced chemiluminescence assay (Amersham Pharmacia Biotec, Arlington Heights, Ill.).

[6] = system: IRF-3; assay: Western blot of nuclear IRF-3 in RSV-infected A549 cells; assay type: cell-based, human
Description: as §3

[7] = system: IRF-3; assay: Microaffinity isolation/Western blot for IRF-3 bound to RANTES ISRE; assay type: cell-based, human; settings: nuclear extracts, RSV 12 hours
Description: Microaffinity isolation assay. Microaffinity purification of proteins binding to the RANTES ISRE was performed using a two-step biotinylated DNA-streptavidin capture assay (20). In this assay, duplex oligonucleotides are chemically synthesized containing 5′ biotin (Bt) on a flexible linker (Genosys, the Woodlands, TX). Four hundred micrograms of 12 hours-infected A549 cells nuclear extracts were incubated at 4° C. for 30 minutes with 50 pmoles of Bt ISRE, in the absence or presence of 10 fold molar excess of non-biotinylated ISRE wild type (WT) or mutated (MUT). The binding buffer contained 8 μg poly dI/dC (as nonspecific competitor) and 5% (v/v) glycerol, 12 mM HEPES, 80 mM NaCl, 5 mM DTT, 5 mM Mg2Cl, 0.5 mM EDTA. One hundred μl of a 50% slurry of pre-washed streptavidin-agarose beads was then added to the sample, and incubated at 4° C. for an additional 20 minutes with gentle rocking. Pellets were washed twice with 500 μl binding buffer, and the washed pellets were resuspended in 100 μl 1×SDS-PAGE buffer, boiled and fractionated on a 10% SDS-polyacrylamide gel. After electrophoresis separation, proteins were transferred to polyvinylidene difluoride (PVDF) membrane for Western blot analysis.
Western Immunoblot. Total cell lysates and cytoplasmic and nuclear proteins were prepared as previously described, fractionated by SDS-PAGE and transferred to PVDF membrane (20). […]

[8] = system: RANTES; assay: RSV-induced RANTES secretion in SAE cells (ELISA); assay type: cell-based, human
Description: Cell culture and infection of epithelial cells with RSV. A549, human alveolar type II-like epithelial cells (ATCC, Manassas, Va.), were maintained in F12K medium containing 10% (v/v) fetal bovine serum (FBS), 10 mM glutamine, 100 IU/ml penicillin and 100 μg/ml streptomycin. Small alveolar epithelial cells (SAE) were obtained from Clonetics (San Diego, Calif.) and grown according to the company instructions. Cell monolayers were infected with RSV at multiplicity of infection (MOI) of 1 (unless otherwise stated), as described (17). An equivalent amount of a 20% sucrose solution was added to uninfected A549 cells, as a control. For the antioxidant experiments, cells were pretreated with the antioxidants for one hour and then infected in the presence of the antioxidants. Since BHA was diluted in ethanol, equal amounts of ethanol were added to untreated cells, as a control. Total number of cells, cell viability and viral replication, following antioxidant treatment, were measured by trypan blue exclusion and by plaque assay, respectively. RANTES ELISA. Immunoreactive RANTES was quantitated by a double antibody ELISA kit (DuoSet, R&D Systems, Minneapolis, Minn.) following the manufacturer's protocol.

[9] = system: human IRF-1 promoter; assay: IRF-1 promoter luciferase reporter in A549 cells; assay type: cell-based
Description: as §1

COc1ccc(O)c(C(C)(C)C)c1 [BHA, butylated hydroxyanisol]
basal level of transcription (IRF-7 promoter) ([1]; A549 cells): did not affect
RSV-induced luciferase activity (IRF-7 promoter) ([1]; RSV 6 hours, 400 μM): completely abolished
IRF-7 mRNA accumulation ([2]; 6 and 12 hours post-infection): almost completely blocked
IRF-7 mRNA accumulation ([2]; 24 hours post-infection): significantly reduced
RSV-induced NF-κB nuclear translocation and DNA-binding [3]: did not affect
IRF-3 mRNA level [4]: unaffected
RSV-induced IRF-7 protein synthesis [5]: almost completely abolished
the other RSV-inducible nuclear form of IRF-3 [6]: not affected
IRF-3 binding to RANTES ISRE [7]: almost completely abolished
effectiveness in reducing RSV-induced RANTES secretion, compared among the antioxidants [8]: most effective
RSV-induced RANTES production ([8]; 400 μM, 24 hours, ELISA): significantly reduced
basal level of transcription (IRF-1 promoter) ([9]; A549 cells): did not affect
RSV-induced luciferase activity (IRF-1 promoter) ([9]; RSV 12 hours, 400 μM): completely abolished
